Here are results for 36 molecules from patent US8680139B2 (Progenra, priority 2009, dated 2014).

Bounds are passed on as bounds.

The test deals with T1, USP7 (Homo sapiens, UniProt Q93009).
T1 construct: full length human USP7 protein; made in house
T1 sequence (Q93009 whole entry): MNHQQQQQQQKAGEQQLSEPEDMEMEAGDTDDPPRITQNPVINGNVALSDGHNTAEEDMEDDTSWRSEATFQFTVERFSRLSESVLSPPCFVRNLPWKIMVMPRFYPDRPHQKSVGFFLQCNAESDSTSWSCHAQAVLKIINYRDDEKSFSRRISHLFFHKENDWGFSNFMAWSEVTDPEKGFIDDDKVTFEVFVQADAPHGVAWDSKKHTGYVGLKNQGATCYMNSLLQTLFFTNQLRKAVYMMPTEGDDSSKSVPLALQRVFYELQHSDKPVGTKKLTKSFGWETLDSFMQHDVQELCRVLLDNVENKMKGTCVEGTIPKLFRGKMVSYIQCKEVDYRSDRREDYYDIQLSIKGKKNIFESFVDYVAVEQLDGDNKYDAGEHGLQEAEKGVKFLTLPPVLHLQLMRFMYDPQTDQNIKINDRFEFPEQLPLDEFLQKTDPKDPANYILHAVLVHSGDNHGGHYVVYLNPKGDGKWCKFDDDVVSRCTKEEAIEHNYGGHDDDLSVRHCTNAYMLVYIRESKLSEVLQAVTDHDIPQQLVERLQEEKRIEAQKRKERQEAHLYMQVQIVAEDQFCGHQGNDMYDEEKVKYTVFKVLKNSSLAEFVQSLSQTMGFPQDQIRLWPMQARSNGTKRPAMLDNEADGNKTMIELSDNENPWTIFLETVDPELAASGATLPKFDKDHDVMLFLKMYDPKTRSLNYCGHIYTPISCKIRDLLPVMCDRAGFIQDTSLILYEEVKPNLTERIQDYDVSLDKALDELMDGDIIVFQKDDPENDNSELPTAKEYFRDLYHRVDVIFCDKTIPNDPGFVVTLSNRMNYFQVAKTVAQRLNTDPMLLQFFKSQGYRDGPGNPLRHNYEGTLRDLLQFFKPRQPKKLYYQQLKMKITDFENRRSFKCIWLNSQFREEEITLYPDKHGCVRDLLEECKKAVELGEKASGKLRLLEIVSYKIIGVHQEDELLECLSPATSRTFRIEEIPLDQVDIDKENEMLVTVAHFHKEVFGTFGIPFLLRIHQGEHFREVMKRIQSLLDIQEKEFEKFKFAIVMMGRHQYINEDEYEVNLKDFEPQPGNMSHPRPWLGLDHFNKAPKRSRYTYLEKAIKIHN
The experiment in a line: USP7, Ub-PLA2 assay. It counts as biochemical. The following applies: Ub-PLA2 / NBD C6-HPC fluorescence, 30 minute preincubation; read-out: EC50 for inhibition of USP7. In short, it runs like this:
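Activity read as fluorescence in a Ub-PLA2 format, with percent inhibition calculated within each plate against DMSO (uninhibited) and NEM (background) wells. Vehicle was 100% DMSO.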
Turning to `O=C(Nc1ccccc1)c1cc([N+](=O)[O-])c(Sc2c(Cl)cncc2Cl)s1` [Example 116, 5-((3,5-dichloropyridin-4-yl)thio)-4-nitro-N-phenylthiophene-2-carboxamide], the EC50 (usually the concentration giving half of the maximal effect) was no more than 1 µM.

Turning to `O=C(Nc1c(Cl)cccc1Cl)c1cc([N+](=O)[O-])c(Sc2c(Cl)cncc2Cl)s1` [Example 135, N-(2,6-dichlorophenyl)-5-((3,5-dichloropyridin-4-yl)thio)-4-nitrothiophene-2-carboxamide], the EC50 is no more than 1 µM.

In the case of `O=C(Nc1ccc(F)c(Cl)c1)c1cc([N+](=O)[O-])c(Sc2c(Cl)cncc2Cl)s1` [Example 137, N-(3-chloro-4-fluorophenyl)-5-((3,5-dichloropyridin-4-yl)thio)-4-nitrothiophene-2-carboxamide], the EC50 was no more than 1 µM.

In the case of `O=Cc1cc([N+](=O)[O-])c(Sc2ccc(Cl)cc2Cl)s1` [Example 32, 5-(2,4-dichlorophenylsulfanyl)-4-nitrothiophene-2-carbaldehyde], the EC50 lay within 1 to 10 µM.

Take `O=C(c1cc([N+](=O)[O-])c(Sc2c(Cl)cncc2Cl)s1)N1CCN(CCO)CC1` [Example 61, (5-((3,5-dichloropyridin-4-yl)thio)-4-nitrothiophen-2-yl)(4-(2-hydroxyethyl)piperazin-1-yl)methanone]: the EC50 was in the range of 1 to 10 µM.

Turning to `CC(=O)c1cc([N+](=O)[O-])c(Sc2ccc3c(C)cc(=O)oc3c2)s1` [Example 38, 7-[(5-acetyl-3-nitro-2-thienyl)sulfanyl]-4-methyl-chromen-2-one], the EC50 was greater than 10 µM.

For `O=C(NCCC(=O)N1CCCC1)c1cc([N+](=O)[O-])c(Sc2c(Cl)cncc2Cl)s1` [Example 268, 5-((3,5-dichloropyridin-4-yl)thio)-4-nitro-N-(3-oxo-3-(pyrrolidin-1-yl)propyl)thiophene-2-carboxamide], the EC50 was in the range of 1 to 10 µM.

On to `CCN1CCC(CNC(=O)c2cc([N+](=O)[O-])c(Sc3c(Cl)cncc3Cl)s2)C1` (stereo not drawn) [Example 91, 5-((3,5-dichloropyridin-4-yl)thio)-N-((1-ethylpyrrolidin-3-yl)methyl)-4-nitrothiophene-2-carboxamide], for which the EC50 lay in the range of 1 to 10 µM.

On to `CC(C)N1CCC(NC(=O)c2cc([N+](=O)[O-])c(Sc3c(Cl)cncc3Cl)s2)CC1` [Example 187, 5-((3,5-dichloropyridin-4-yl)thio)-N-(1-isopropylpiperidin-4-yl)-4-nitrothiophene-2-carboxamide], for which the EC50 is no more than 1 µM.

Regarding `C[S+]([O-])CCCNC(=O)c1cc([N+](=O)[O-])c(Sc2c(Cl)cncc2Cl)s1` (stereo not drawn) [Example 244, 5-((3,5-dichloropyridin-4-yl)thio)-N-(3-(methylsulfinyl)propyl)-4-nitrothiophene-2-carboxamide], the concentration for a half-maximal effect (EC50) lay within 1 to 10 µM.

As for `CC(C)(C)OC(=O)Nc1ccc(NC(=O)c2cc([N+](=O)[O-])c(Sc3c(Cl)cncc3Cl)s2)cc1` [Example 234, tert-butyl (4-(5-((3,5-dichloropyridin-4-yl)thio)-4-nitrothiophene-2-carboxamido)phenyl)carbamate], the EC50 was no more than 1 µM.

As to `CSc1ccc(CNC(=O)c2cc([N+](=O)[O-])c(Sc3c(Cl)cncc3Cl)s2)cc1` [Example 264, 5-((3,5-dichloropyridin-4-yl)thio)-N-(4-(methylthio)benzyl)-4-nitrothiophene-2-carboxamide], the EC50 is no more than 1 µM.

With `CNC(=O)c1cc([N+](=O)[O-])c(Sc2cccc(Cl)c2Cl)s1` [Example 42, 5-(2,3-dichlorophenylsulfanyl)-N-methyl-4-nitrothiophene-2-carboxamide], the EC50 lay within 1 to 10 µM.

Regarding `O=C(Nc1ccc(O)cc1)c1cc([N+](=O)[O-])c(Sc2c(Cl)cncc2Cl)s1` [Example 181, 5-((3,5-dichloropyridin-4-yl)thio)-N-(4-hydroxyphenyl)-4-nitrothiophene-2-carboxamide], the EC50 is no more than 1 µM.

For `O=C(NCCCN1CCCC1=O)c1cc([N+](=O)[O-])c(Sc2c(Cl)cncc2Cl)s1` [Example 104, 5-((3,5-dichloropyridin-4-yl)thio)-4-nitro-N-(3-(2-oxopyrrolidin-1-yl)propyl)thiophene-2-carboxamide], the EC50 is no more than 1 µM.

Take `COC(=O)c1cc([N+](=O)[O-])c(Sc2nc3cc(Cl)c(F)cc3[nH]2)s1` [Example 265, Methyl 5-((5-chloro-6-fluoro-1H-benzo[d]imidazol-2-yl)thio)-4-nitrothiophene-2-carboxylate]: the EC50 was in the range of 1 to 10 µM.

With `CN1CCN(CCNC(=O)c2cc([N+](=O)[O-])c(Sc3c(Cl)cncc3Cl)s2)CC1` [Example 64, 5-((3,5-dichloropyridin-4-yl)thio)-N-(2-(4-methylpiperazin-1-yl)ethyl)-4-nitrothiophene-2-carboxamide], the concentration for a half-maximal effect (EC50) lay within 1 to 10 µM.

For `O=C(NCc1ccc(Cl)cc1)c1cc([N+](=O)[O-])c(Sc2c(Cl)cncc2Cl)s1` [Example 106, N-(4-chlorobenzyl)-5-((3,5-dichloropyridin-4-yl)thio)-4-nitrothiophene-2-carboxamide], the EC50 is no more than 1 µM.

In the case of `CCCN1CCC(NC(=O)c2cc([N+](=O)[O-])c(Sc3c(Cl)cncc3Cl)s2)CC1` [Example 230, 5-((3,5-dichloropyridin-4-yl)thio)-4-nitro-N-(1-propylpiperidin-4-yl)thiophene-2-carboxamide], the EC50 was no more than 1 µM.

With `O=C(NC1CCCNC1=O)c1cc([N+](=O)[O-])c(Sc2c(Cl)cncc2Cl)s1` (stereo not drawn) [Example 95, 5-((3,5-dichloropyridin-4-yl)thio)-4-nitro-N-(2-oxopiperidin-3-yl)thiophene-2-carboxamide], the EC50 lay in the range of 1 to 10 µM.

`CN1CCC(NC(=O)c2cc([N+](=O)[O-])c(Sc3c(Cl)cccc3Cl)s2)CC1` [Example 269, 5-((2,6-dichlorophenyl)thio)-N-(1-methylpiperidin-4-yl)-4-nitrothiophene-2-carboxamide]: the EC50 fell in the range of 1 to 10 µM.

As to `COc1cccc(CN(C)C(=O)c2cc([N+](=O)[O-])c(Sc3c(Cl)cncc3Cl)s2)c1` [Example 67, 5-((3,5-dichloropyridin-4-yl)thio)-N-(3-methoxybenzyl)-N-methyl-4-nitrothiophene-2-carboxamide], the concentration giving a half-maximal response (EC50) lay within 1 to 10 µM.

As for `COc1cncc(CNC(=O)c2cc([N+](=O)[O-])c(Sc3c(Cl)cncc3Cl)s2)c1` [Example 239, 5-((3,5-dichloropyridin-4-yl)thio)-N-((5-methoxypyridin-3-yl)methyl)-4-nitrothiophene-2-carboxamide], the EC50 is no more than 1 µM.

As to `CC(=O)N1CCC(NC(=O)c2cc([N+](=O)[O-])c(Sc3c(Cl)cncc3Cl)s2)CC1` [Example 232, N-(1-acetylpiperidin-4-yl)-5-((3,5-dichloropyridin-4-yl)thio)-4-nitrothiophene-2-carboxamide], the EC50 lay within 1 to 10 µM.

With `Cc1cnc(NC(=O)c2cc([N+](=O)[O-])c(Sc3c(Cl)cncc3Cl)s2)s1` [Example 89], the EC50 lay in the range of 1 to 10 µM.

With `O=C(NC1CC2CCC1C2)c1cc([N+](=O)[O-])c(Sc2c(Cl)cncc2Cl)s1` (stereo not drawn) [Example 177, N-(bicyclo[2.2.1]heptan-2-yl)-5-((3,5-dichloropyridin-4-yl)thio)-4-nitrothiophene-2-carboxamide], the EC50 is no more than 1 µM.

As for `COc1cc(NC(=O)c2cc([N+](=O)[O-])c(Sc3c(Cl)cncc3Cl)s2)cc(OC)c1OC` [Example 169, 5-((3,5-dichloropyridin-4-yl)thio)-4-nitro-N-(3,4,5-trimethoxyphenyl)thiophene-2-carboxamide], the EC50 is no more than 1 µM.

As for `O=C(NCCCN1CCCCC1)c1cc([N+](=O)[O-])c(Sc2ccc(F)cc2F)s1` [Example 267, 5-((2,4-difluorophenyl)thio)-4-nitro-N-(3-(piperidin-1-yl)propyl)thiophene-2-carboxamide], the EC50 was greater than 10 µM.

`CC1(C)CC(NC(=O)c2cc([N+](=O)[O-])c(Sc3c(Cl)cncc3Cl)s2)CC(C)(C)N1` [Example 178, 5-((3,5-dichloropyridin-4-yl)thio)-4-nitro-N-(2,2,6,6-tetramethylpiperidin-4-yl)thiophene-2-carboxamide]: the EC50 is no more than 1 µM.

`O=C(NCc1cccc(OC(F)(F)F)c1)c1cc([N+](=O)[O-])c(Sc2c(Cl)cncc2Cl)s1` [Example 68, 5-((3,5-dichloropyridin-4-yl)thio)-4-nitro-N-(3-(trifluoromethoxy)benzyl)thiophene-2-carboxamide]: the EC50 fell in the range of 1 to 10 µM.

Take `Cc1nc(C)c(Cl)c(Sc2sc(C(=O)NC3CCN(C)CC3)cc2[N+](=O)[O-])c1Cl` [Example 243, 5-((3,5-dichloro-2,6-dimethylpyridin-4-yl)thio)-N-(1-methylpiperidin-4-yl)-4-nitrothiophene-2-carboxamide]: the EC50 lay within 1 to 10 µM.

For the molecule `O=C(NCCCN1CCCC1)c1cc([N+](=O)[O-])c(Sc2c(Cl)cncc2Cl)s1` [Example 191, 5-((3,5-dichloropyridin-4-yl)thio)-4-nitro-N-(3-(pyrrolidin-1-yl)propyl)thiophene-2-carboxamide], the EC50 was no more than 1 µM.

Take `O=C(NC1CCN(C2CC2)CC1)c1cc([N+](=O)[O-])c(Sc2c(Cl)cncc2Cl)s1` [Example 231, N-(1-cyclopropylpiperidin-4-yl)-5-((3,5-dichloropyridin-4-yl)thio)-4-nitrothiophene-2-carboxamide]: the EC50 lay in the range of 1 to 10 µM.

As to `O=C(NCCCN1CCCC(O)C1)c1cc([N+](=O)[O-])c(Sc2c(Cl)cncc2Cl)s1` (stereo not drawn) [Example 223, 5-((3,5-dichloropyridin-4-yl)thio)-N-(3-(3-hydroxypiperidin-1-yl)propyl)-4-nitrothiophene-2-carboxamide], the EC50 fell in the range of 1 to 10 µM.

For the molecule `O=C(NCCCN1CCCC1=O)c1cc([N+](=O)[O-])c(Sc2ccc(Cl)cc2Cl)s1` [Example 82, 5-((2,4-dichlorophenyl)thio)-4-nitro-N-(3-(2-oxopyrrolidin-1-yl)propyl)thiophene-2-carboxamide], the EC50 lay in the range of 1 to 10 µM.

With `CC(=O)c1cc([N+](=O)[O-])c(Sc2ccccc2Cl)s1` [Example 1, 1-[5-(2-Chlorophenylsulfanyl)-4-nitro-2-thienyl]ethanone], the EC50 is greater than 10 µM.
